This note sets out measurements from US20090220503A1, “METHOD FOR TREATING CANCERS WITH INCREASED RAS SIGNALING” (THE TRUSTEES OF BOSTON UNIVERSITY, priority 2006, published 2009).

Test [1] relates to KBalb cells. Put plainly: MTT cell proliferation assay, KBalb. Type of test: cell-based, mouse. Conditions: KBalb (mutated p21Ras), 48 h, inhibitor concentration as in Table 3. The protocol:
(§1) FIGS. 1A-1C show effects of different PKC isoform inhibitors on proliferation of mouse fibroblast cells and human pancreatic cells. Cells were grown to 80% confluence in 96-well plates, then treated with the inhibitors at the concentrations indicated in Table I. The corresponding solvents with equivalent volume were used as vehicle controls. After 48 h treatment, cell proliferation was evaluated by MTT assay. Results are presented as the means ±SD. Statistical significance was determined using a paired Student's t-test, and p-values ≦0.05 were considered significant. […] Nuclear-free lysates containing a total of 400 μg protein from each indicated cell type were used for analysis of Ras activity by Raf-RBD pull down.
(§2) All inhibitors were dissolved in dimethyl sulfoxide for use, and their effects were measured relative to dimethyl sulfoxide (vehicle)-treated controls.
(§3) Cell Culture and Treatment. NIH/3T3 and Balb cell lines were obtained from ATCC (American Type Culture Collection, Rockville, Md.). NIH/3T3-Ras cells were produced by stable transfection of v-Harvey ras, and selected and maintained in 0.5 mg/ml of Geneticin (Gibco BRL, Gaithersburg, Md.). Ki-v-ras-Balb (KBalb) cells were produced by stable infection of Balb with retroviral vector stocks containing v-Kirsten ras, and were selected and maintained with Geneticin. The human pancreatic tumor lines Hs 766s, BxPC-3 and MIA PaCa-2, were obtained from ATCC. All cell lines were maintained in Dulbecco Modified Eagle medium (DMEM) (Gibco BRL) supplemented with 2 mM 1-glutamine, 100 U/ml of penicillin, and 100 μg/ml of streptomycin (Gibco BRL). […] Cell proliferation was assessed using an MTT [3-(4,5-dimethylthiazol-2-yl)-2,5-diphenyltetrazolium bromide] assay (Roche, Mannheim, Germany). […] The optical densities were quantified at a test wavelength of 550 nm and a reference wavelength of 630 nm on a multiwell spectrophotometer. siRNA Knockdown of PKCδ. siRNA duplexes (siRNAs) were obtained from Qiagen (Valencia, Calif.). […]
A general note: Tetrazolium dyes change colour on reduction, which living cells bring about.

Test [2] deals with MIA PaCa-2 cells. Put plainly: MTT cell proliferation assay, MIA PaCa-2. Particulars: MIA PaCa-2 (mutated p21Ras), 48 h, inhibitor concentration as in Table 3. In kind it is cell-based, human. The protocol: as §1, §2, §3
For test [3], the system named is KBalb cells. The experiment in a line: Apoptotic (hypodiploid) fraction by propidium iodide flow cytometry, KBalb. In kind it is cell-based, mouse. Conditions: 60 h. The protocol:
(§4) FIGS. 4A-4D show activation of apoptosis by individual p21^Ras-effector pathways. […] Cells were fixed and stained with propidium iodide, and the apoptotic (hypodiploid) fractions were evaluated by PI staining and flow cytometric analysis using the FL2-H channel. Cells transfected with the empty pSG5 vector served as negative controls. […] NIH/3T3 cells were pre-treated for 30 minutes with Ly294002 (10 μM) before rottlerin (20 μM) was added. The apoptotic (hypodiploid) fractions were evaluated 60 h later. […] The apoptotic (hypodiploid) fractions were evaluated 60 h later. Cells were fixed and stained with propidium iodide. DNA fragmentation was analyzed by flow cytometry using the FL2-H channel.
Cell Culture and Treatment. NIH/3T3 and Balb cell lines were obtained from ATCC (American Type Culture Collection, Rockville, Md.). […] Cell proliferation was assessed using an MTT [3-(4,5-dimethylthiazol-2-yl)-2,5-diphenyltetrazolium bromide] assay (Roche, Mannheim, Germany). […] The optical densities were quantified at a test wavelength of 550 nm and a reference wavelength of 630 nm on a multiwell spectrophotometer. siRNA Knockdown of PKCδ. siRNA duplexes (siRNAs) were obtained from Qiagen (Valencia, Calif.). […] PKCδ protein levels were determined by immunoblot analysis. […] PKCδ activity was measured with an assay kit (Upstate Cell Signaling). […]
(In general: In flow cytometry, cells or beads pass a laser one at a time.)

Test [4] deals with NIH/3T3 cells. The experiment in a line: Apoptotic (hypodiploid) fraction by propidium iodide flow cytometry, NIH/3T3 cells expressing Ras effectors or effector mutants. In kind it is cell-based, mouse. The protocol:
as §4
Cell Culture and Treatment. NIH/3T3 and Balb cell lines were obtained from ATCC (American Type Culture Collection, Rockville, Md.). NIH/3T3-Ras cells were produced by stable transfection of v-Harvey ras, and selected and maintained in 0.5 mg/ml of Geneticin (Gibco BRL, Gaithersburg, Md.). Ki-v-ras-Balb (KBalb) cells were produced by stable infection of Balb with retroviral vector stocks containing v-Kirsten ras, and were selected and maintained with Geneticin. The human pancreatic tumor lines Hs 766s, BxPC-3 and MIA PaCa-2, were obtained from ATCC. All cell lines were maintained in Dulbecco Modified Eagle medium (DMEM) (Gibco BRL) supplemented with 2 mM 1-glutamine, 100 U/ml of penicillin, and 100 μg/ml of streptomycin (Gibco BRL). Media was additionally supplemented with 10% DCS (NIH/3T3, NIH/3T3-Ha-v-Ras, Balb/3T3, Ki-v-ras-Balb, and Balb-myc), or 10% FBS (BxPC-3, MIA PaCa-2). Cells were cultured at 37° C. and 5% CO2. Cell Proliferation Assay. Cell proliferation was assessed using an MTT [3-(4,5-dimethylthiazol-2-yl)-2,5-diphenyltetrazolium bromide] assay (Roche, Mannheim, Germany). […] The optical densities were quantified at a test wavelength of 550 nm and a reference wavelength of 630 nm on a multiwell spectrophotometer. siRNA Knockdown of PKCδ. siRNA duplexes (siRNAs) were obtained from Qiagen (Valencia, Calif.). […] PKCδ protein levels were determined by immunoblot analysis. […] PKCδ activity was measured with an assay kit (Upstate Cell Signaling). […] Immunocomplexes were washed three times with the kinase buffer (20 mM Tris-HCl, 10 mM MgCl2, pH 7.5) and then incubated with a PKC-specific peptide substrate, [γ-^33P]ATP, and inhibitors of cAMP-dependent kinase and calmodulin kinase for 10 min at 30° C. ^33P incorporated into the substrate was separated from residual ^33P using p81 filters and subsequently quantified by scintillation counting. β-actin antibody was used as negative control in immunoprecipitations. p21^Ras Activity Assays. […]

For test [5], the system named is PKCδ. Type of test: cell-based. The protocol:
(§5) Cell Culture and Treatment. NIH/3T3 and Balb cell lines were obtained from ATCC (American Type Culture Collection, Rockville, Md.). NIH/3T3-Ras cells were produced by stable transfection of v-Harvey ras, and selected and maintained in 0.5 mg/ml of Geneticin (Gibco BRL, Gaithersburg, Md.). Ki-v-ras-Balb (KBalb) cells were produced by stable infection of Balb with retroviral vector stocks containing v-Kirsten ras, and were selected and maintained with Geneticin. The human pancreatic tumor lines Hs 766s, BxPC-3 and MIA PaCa-2, were obtained from ATCC. All cell lines were maintained in Dulbecco Modified Eagle medium (DMEM) (Gibco BRL) supplemented with 2 mM 1-glutamine, 100 U/ml of penicillin, and 100 μg/ml of streptomycin (Gibco BRL). Media was additionally supplemented with 10% DCS (NIH/3T3, NIH/3T3-Ha-v-Ras, Balb/3T3, Ki-v-ras-Balb, and Balb-myc), or 10% FBS (BxPC-3, MIA PaCa-2). Cells were cultured at 37° C. and 5% CO2. Cell Proliferation Assay. Cell proliferation was assessed using an MTT [3-(4,5-dimethylthiazol-2-yl)-2,5-diphenyltetrazolium bromide] assay (Roche, Mannheim, Germany). […] The optical densities were quantified at a test wavelength of 550 nm and a reference wavelength of 630 nm on a multiwell spectrophotometer. siRNA Knockdown of PKCδ. siRNA duplexes (siRNAs) were obtained from Qiagen (Valencia, Calif.). […]

Test [6] relates to Balb cells. Put plainly: MTT cell proliferation assay, Balb. Type of test: cell-based, mouse. Particulars: Balb (wild-type p21Ras), 48 h, 20 μM. The protocol:
as §1, §2
(§6) Cell Culture and Treatment. NIH/3T3 and Balb cell lines were obtained from ATCC (American Type Culture Collection, Rockville, Md.). […] Cell proliferation was assessed using an MTT [3-(4,5-dimethylthiazol-2-yl)-2,5-diphenyltetrazolium bromide] assay (Roche, Mannheim, Germany). […] The optical densities were quantified at a test wavelength of 550 nm and a reference wavelength of 630 nm on a multiwell spectrophotometer. siRNA Knockdown of PKCδ. siRNA duplexes (siRNAs) were obtained from Qiagen (Valencia, Calif.). […]

The test system of test [7] is PKCδ. Put plainly: Immunoblot analysis of PKCδ protein levels. Type of test: cell-based. Conditions: 20 μM, 48 h, all cell lines tested. The protocol:
as §5

Test [8] deals with Hs766T cells. Put plainly: MTT cell proliferation assay, Hs766T. Type of test: cell-based, human. Particulars: Hs766T (wild-type p21Ras), 48 h, 20 μM. The protocol: as §1, §2, §6

With `CN(C)CCCn1cc(C2=C(c3c[nH]c4ccccc34)C(=O)NC2=O)c2ccccc21` [Bis-1, Bisindolylmaleimide I], the “cell proliferation (MTT)” value in test [1] and in test [2] was “strongly suppressed the growth” each time.
Take `CCCCCCCCCCCCCCCCOCC(CO)OC` (stereo not shown) [HMG]: the “cell proliferation (MTT)” value in test [1] and in test [2] was “strongly suppressed the growth” each time.
Regarding `O=c1cc(N2CCOCC2)oc2c(-c3ccccc3)cccc12` [LY294002], the “apoptosis induced by PKCδ inhibition blocked” value in test [3] (KBalb cells, pre-treatment before rottlerin 20 μM) came out at 50%. The “decrease of apoptosis induced by rottlerin” value in test [4] (NIH/3T3 p110-CAAX, 20 μM pre-treatment 30 min, then rottlerin 20 μM 60 hours) is given as around 50%.
With `COc1cccc(-c2cc(=O)c3ccccc3o2)c1N` [PD98095], in test [3] (cells with activated p21Ras, 10 μM pre-treatment, rottlerin 20 μM, lesser degree than PI3K-inhibition), the “suppression of p21Ras-dependent apoptosis” value is “suppressed p21^Ras-dependent apoptosis to some extent”.
As to `CC(=O)c1c(O)c(C)c(O)c(Cc2c(O)c3c(c(C(=O)/C=C/c4ccccc4)c2O)OC(C)(C)C=C3)c1O` [rottlerin, Rottlerin], the “cell proliferation (MTT)” value in test [1] was “dramatically and specifically decreased the proliferation”; in test [2] it was “dramatically and specifically decreased the proliferation”; in test [6] it was “stimulated proliferation”; in test [8], “stimulated proliferation”. Besides, in test [4] (20 μM, 60 h, C40 greatest), the “apoptosis in cells expressing p21Ras effector mutants S35, G37, C40” value is reported as “stimulated apoptosis to some extent”. For the same compound, in test [4] (NIH/3T3 Raf-22W, RIF-CAAX, rottlerin 20 μM, 60 h), the “apoptosis in cells expressing Raf or Ral-GEF effectors” value is given as “induced little apoptosis”. In test [4] (NIH/3T3 with activated PI3K (p110-CAAX), rottlerin 20 μM, 60 h), this compound came in with an apoptotic frequency of 38.22%. In test [5], the PKCδ activity blocked entry was “greater than 95%”. The “PKCδ protein levels after rottlerin” value in test [7] is given as “suppressed PKCδ levels somewhat”.
